Reference: patent US20100093603A1, “USE OF ORGANIC COMPOUNDS” (priority 2008, published 2010)

What was measured:
Assay type in all cases: in vivo, Sprague Dawley rats
[1] = system: intracellular Ang II (iAng II) in cardiac myocytes; assay: Measurement of iAng II in cardiac myocytes isolated from STZ-diabetic rat hearts (competitive ELISA); conditions: for iAng II levels in cardiac myocytes: STZ-diabetic rats treated daily for 7 days (insulin 2-5 U BID SC; candesartan 1 mg/kg IP; aliskiren 30 mg/kg oral; benazepril 10 mg/kg oral), mean±SE, diabetic untreated 0.59±0.01, control 0.06±0.01; for iAng II synthesis, blocked or not (result in words): diabetic rats, summary statement
Method: (§1) Diabetes is induced by a single injection of streptozotocin (STZ, 65 mg/kg body weight, IP) dissolved in 0.1 M sodium citrate buffered saline (pH 4.5), in adult male Sprague Dawley rats (250-300 g). Control animals receive buffered saline alone. Diabetes is confirmed by sustained blood glucose levels >15 mmol/L, as determined 48 h after STZ injection and on alternate days thereafter. […] After 7 days, animals are weighed and anesthetized using ketamine/xylazine (50/5 mg/kg). Hearts are isolated and weighed before perfusion, the latter using the Langendorff methodology.
Hearts are isolated and perfused with Krebs-Henseleit bicarbonate buffer, followed by digestion with collagenase II (0.1% w/v). Myocytes are separated from non-myocytes by differential centrifugation at 25×g. […] The pellet containing myocytes is processed for Ang II extraction, as described by Singh et al in Am J Physiol Heart Circ Physiol 293:H939-H948, 2007. Cells were lysed in ice-cold 1 M acetic acid, containing a protease inhibitor cocktail (Sigma), by sonication (2 pulses of 5 sec each). The lysate is sedimented at 20,000×g for 10 min and the supernatant is dried in a vacufuge, followed by reconstitution in 1% acetic acid. The samples are applied to a conditioned DSC-18 column (Supelco), washed, and eluted with methanol. The eluted samples are dried and reconstituted in PBS for ELISA. For isolation of Ang II from plasma, an equal volume of 2% acetic acid is added to plasma, followed by filtration through Amicon Ultra-15 filters. The filtrate is applied to DSC-18 columns and Ang II is eluted, as described for the cell lysates. […] Ang II is measured by quantitative, competitive ELISA, using a specific anti-Ang II antibody (Peninsula Labs), as previously described in Am J Physiol Heart Circ Physiol 293:H939-H948, 2007. ELISA is performed on protein-A and anti-Ang II antibody-coated 96-well dishes. Competitive binding of synthetic biotinylated Ang II, in the presence of the extracted peptide, is detected with streptavidin-horseradish peroxidase conjugate. A standard curve, generated from binding of a constant amount of biotinylated Ang II with increasing concentrations of non-biotinylated synthetic Ang II, is used to calculate the concentration of the peptide in the sample. The concentration of Ang II in the cell lysates is expressed as fmoles per milligram of heart wt and in plasma as fmoles per milligram of plasma proteins.
Ang II levels in cardiac myocytes, which are isolated after perfusion of the hearts and enzymatic dispersion, correspond to Ang II present intracellularly. To determine the source of iAng II, i.e., intracellular synthesis or AT1-mediated internalization, one group of diabetic animals is treated with the AT1 antagonist candesartan to prevent receptor-mediated uptake.

[2] = system: Superoxide production in the hearts; assay: Reactive oxygen species detection in the heart by dihydroethidium (DHE) staining; conditions: STZ-diabetic rats; for DHE fluorescence, Mean: 7 days of treatment, frozen heart sections, 10 μM DHE, control 17.65, diabetic no treatment 68.6; for superoxide production / oxidative stress (result in words): DHE staining of heart sections
[3] = system: Cardiac interstitial fibrosis; assay: Cardiac interstitial fibrosis by Masson's trichrome staining, graded on a scale of 0-4; conditions: for degree of fibrosis (average grade): STZ-diabetic rats after one week of diabetes, scale 0-4, diabetic untreated grade 1.5, control grade 0; for diabetes-induced cardiac fibrosis (result in words): diabetic rats, summary statement
Method: as §1
Cardiac interstitial fibrosis is determined by Masson's trichrome staining on 5 μm paraffin-embedded sections. The extent and degree of fibrosis is graded on a scale of 0-4. Grade 0 signifies no apparent collagen fiber proliferation except for small islets of fibrous tissue around the capillaries, as well as an intercellular single layer of collagenous tissue, as in normal myocardium. Focal and minimal fibrosis is graded as 1, mild patchy fibrosis as grade 2, moderate diffuse fibrosis as grade 3 and the most prominent fibrosis, covering major area of the specimen, is classified as 4. A minimum of three sections per heart, with five fields per section, and three animals per experimental group, are analyzed and results presented as an average grade.
After one week of diabetes, the overall staining for fibrosis is enhanced in hearts from diabetic rats (grade 1.5), compared to control animals (grade 0). […] Candesartan and benazepril reduces the degree of fibrosis (grade 0.43 and 0.88, respectively), whereas aliskiren has a more pronounced reduction of fibrosis (grade 0.25) in diabetic rat hearts.

[4] = system: cardiac myocytes; assay: Cardiac myocyte apoptosis in heart sections (TUNEL assay and cleaved caspase-3 staining); conditions: STZ-diabetic rats; for Caspase-3 staining, Mean / TUNEL assay, Mean: 7 days of treatment, heart sections; for Caspase-3 staining, Mean: control 7, diabetic no treatment 28; for TUNEL assay, Mean: control 8.5, diabetic no treatment 33

Row | Molecule | iAng II levels in cardiac myocytes [1] | iAng II synthesis, blocked or not (result in words) [1] | DHE fluorescence, Mean [2] | superoxide production / oxidative stress (result in words) [2] | degree of fibrosis (average grade) [3] | diabetes-induced cardiac fibrosis (result in words) [3] | Caspase-3 staining, Mean [4] | TUNEL assay, Mean [4] | number of apoptotic cells (result in words) ([4]; by both TUNEL assay and caspase-3 staining)
1 | COCCCOc1cc(C[C@@H](C[C@H](N)[C@@H](O)C[C@H](C(=O)NCC(C)(C)C(N)=O)C(C)C)C(C)C)ccc1OC [aliskiren, 2(S),4(S),5(S),7(S)—N-(3-amino-2,2-dimethyl-3-oxopropyl)-2,7-di(1-methylethyl)-4-hydroxy-5-amino-8-[4-methoxy-3-(3-methoxy-propoxy)phenyl]-octanamide] | 0.12±0.02 fmole/mg heart wt | blocked | 22.7 Arbitrary units | blocks it completely | 0.25 grade | complete inhibition | 18 positive cells/mm^2 | 21.3 positive cells/mm^2 | 
2 | CCOC(=O)[C@H](CCc1ccccc1)N[C@H]1CCc2ccccc2N(CC(=O)O)C1=O [benazepril] | 0.55±0.02 fmole/mg heart wt | not | 51.4 Arbitrary units | reduces oxidative stress | 0.88 grade | partially inhibited | 21 positive cells/mm^2 | 27 positive cells/mm^2 | 
3 | CCOc1nc2cccc(C(=O)O)c2n1Cc1ccc(-c2ccccc2-c2nnn[nH]2)cc1 [candesartan] | 0.43±0.05 fmole/mg heart wt |  | 37.7 Arbitrary units |  | 0.43 grade |  | 18.5 positive cells/mm^2 | 24 positive cells/mm^2 | 
4 | insulin: type 1 diabetes therapeutic agent, used to normalize blood glucose in STZ-treated rats |  |  | 26.7 Arbitrary units | prevented | 0.04 grade |  | 14 positive cells/mm^2 | 20 positive cells/mm^2 | reduces the number of apoptotic cells, but does not prevent apoptosis completely
